# Experimental data: PubChem BioAssay (NCI)
# “And” between values parts separate entries of the source, which are not always exact repeats. Identical values can stand only once.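 48-hour exposure; five concentrations; linearly interpolated endpoints. GI50: concentration for 50% inhibition of growth. TGI: total growth inhibition.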
# Tests used:
# Assay in all cases: NCI tumour cell line growth inhibition, 48 h
# RXF 393 renal = tested on: RXF 393 renal
# COLO 205 colon = tested on: COLO 205 colon
# HCC-2998 colon = tested on: HCC-2998 colon
# CCRF-CEM leukemia = tested on: CCRF-CEM leukemia
# K-562 leukemia = tested on: K-562 leukemia
# HOP-92 NSCLC = tested on: HOP-92 NSCLC
# SK-MEL-5 melanoma = tested on: SK-MEL-5 melanoma
# HCT-116 colon = tested on: HCT-116 colon
# MDA-MB-231 breast = tested on: MDA-MB-231 breast
# T-47D breast = tested on: T-47D breast
Compound,TGI (RXF 393 renal),TGI (COLO 205 colon) [µM],TGI (HCC-2998 colon) [µM],TGI (CCRF-CEM leukemia) [µM],TGI (K-562 leukemia) [µM],TGI (HOP-92 NSCLC) [µM],TGI (SK-MEL-5 melanoma) [µM],TGI (HCT-116 colon) [µM],GI50 (MDA-MB-231 breast) [µM],TGI (MDA-MB-231 breast) [µM],GI50 (RXF 393 renal),GI50 (HCC-2998 colon) [µM],GI50 (CCRF-CEM leukemia) [µM],GI50 (K-562 leukemia) [µM],GI50 (HCT-116 colon) [µM],GI50 (COLO 205 colon) [µM],GI50 (HOP-92 NSCLC) [µM],GI50 (SK-MEL-5 melanoma) [µM],TGI (T-47D breast) [µM]
O=c1c2cccnc2ncn1CCN1CCCCC1,> 100 µM,> 100,> 100,> 100,> 100,> 100,> 100,> 100,–,–,–,–,–,–,–,–,–,–,–
N#CC(C(=O)CCC(=O)Nc1ccc(Cl)c(Cl)c1)c1ccccc1 (stereo not given),> 100 µM,–,> 100,–,> 100,> 100,> 100,> 100,–,–,–,–,–,–,–,–,–,–,–
C[C@@]1(O)CC[C@]2(C)C3CCCC3[C@H]12 (stereo not given in full),> 100 µM,> 100,> 100,> 100,> 100,> 100,> 100,> 100,–,–,–,–,–,–,–,–,–,–,–
Cn1cc(-c2cc3c(N4CCN(c5ncc([C@@](C)(N)c6ccc(F)cc6)cn5)CC4)ncnn3c2)cn1,> 100 µM,–,> 100,> 100,> 100,–,–,> 100,4.77,> 100,2.66 µM,4.23,2.87,2.49,3.15,–,–,–,–
CN1C(=O)C(=O)N2c3ccc(Cl)cc3C3(c4ccccc4)N=CC12O3 (stereo not given),6.34 µM,15,28.4,17.5,19.9,6.63,17.6,13.2,–,–,–,–,–,–,–,–,–,–,–
[O-][Cl+3]([O-])([O-])[O-].[O]=[Ru]=[O].c1ccc(-c2ccccn2)nc1.c1ccc(-c2ccccn2)nc1,> 100 µM,> 100,> 100,> 100,> 100,> 100,> 100,–,–,–,39.1 µM,88.6,> 100,> 100,–,> 100,> 100,82.5,–
CCCCCCCCCCCCNC(=S)OC,25.7 µM,–,32.9,33.3,39.6,20.1,31,29.3,–,–,–,–,–,–,–,–,–,–,–
O=c1[nH]c(-c2ccccc2)nc2cc(Cl)ccc12,> 100 µM,–,> 100,> 100,> 100,–,> 100,> 100,–,–,–,–,–,–,–,–,–,–,–
Cc1[cH-]c(=O)n(-c2ccccc2)n1.[Au+].[Au].c1ccc([PH+](c2ccccc2)c2ccccc2)cc1.c1ccc([PH+](c2ccccc2)c2ccccc2)cc1,3.32 µM and 28.5 µM,60.6,> 100,> 100,> 100,7.77,36.2,38.9,–,–,0.756 µM and 6.89 µM,> 100,22.8,34.7,20.2,25.3,2.79,16.8,–
CCOC(=O)C1=C(C)N(NC(=O)Nc2ccccc2)C2(N)N(NC(=O)Nc3ccccc3)C(C)=C(C(=O)OCC)C12C(=O)OCC (stereo not given),22.4 µM,3.25,80.8,–,> 100,42.8,> 100,80.2,–,–,–,–,–,–,–,–,–,–,–
O=C(Nc1nc(=S)[nH][nH]1)C(=O)C(C(=O)c1ccc2ccccc2c1)C1OC(=O)c2ccccc21 (stereo not given),26.8 µM,34.5,24,80.7,82.9,73.7,43.9,27.6,–,–,–,–,–,–,–,–,–,–,–
CC1(C)CC(c2c[nH]c3ccccc23)=CC2=Nc3ccccc3C21O (stereo not given),> 100 µM,> 100,–,> 100,> 100,64.3,> 100,> 100,–,–,–,–,–,–,–,–,–,–,–
S=P1(Oc2ccccc2)NNP2(=NP(N3CC3)(N3CC3)=NP(N3CC3)(N3CC3)=N2)NN1 (stereo not given),–,> 100,> 100,> 100,> 100,–,> 100,> 100,–,–,–,–,–,–,–,–,–,–,–
O=C1C(C(Nc2ccccc2)c2ccccc2)=C([O-])c2ccccc21.O=C1C(C(Nc2ccccc2)c2ccccc2)=C([O-])c2ccccc21.[Cu+2] (stereo not given),–,> 100,–,–,> 100,> 100,> 100,> 100,–,–,–,–,–,28.6,12,32.1,40.9,7.54,–
COc1c(CC(C)=O)ccc2c1C(=O)c1ccc(C=O)c(OC(C)=O)c1C2=O,25.4 µM,31.6,24.5,55.9,> 100,44.1,27.8,24.9,–,–,–,–,–,–,–,–,–,–,–
Clc1ccc2cccc3c2c1C1OC3c2ccccc21 (stereo not given),> 100 µM,> 100,> 100,> 100,> 100,> 100,–,> 100,–,–,–,–,–,–,–,–,–,–,–
C[C@@H]1CC[C@H]2C(C)(C)[C@H]3C[C@@]12CC[C@@]3(C)O,–,> 100,> 100,> 100,> 100,> 100,> 100,> 100,–,> 100,–,–,–,–,–,–,–,–,> 100
O=C(/C=C/c1c(O)ccc2ccccc12)c1ccc([N+](=O)[O-])cc1,61.8 µM,> 72.5,> 100,> 75.8,> 100,30.9,34.5,37.4,–,–,–,–,–,–,–,–,–,–,–
